Values quoted from earlier work in US20220257802A1, “COMPRESSED SOLID COMPOSITION FOR MRI” (Ascelia Pharma AB, priority 2019, published 2022).

Conditions: after oral intake

## [Mn+2] [manganese]
  first-pass effect in the liver: up to 98%
